# Key:
# LPL [1] = target: T1, LPL (Homo sapiens, UniProt P06858); experiment: LPL activity in milk spiked with 6 pmol LPL, with increasing levels of Orlistat; assay type: biochemical; conditions: 10 μM Orlistat, monitored over 20 min (FIG. 3)
# T1 sequence (P06858 28-475): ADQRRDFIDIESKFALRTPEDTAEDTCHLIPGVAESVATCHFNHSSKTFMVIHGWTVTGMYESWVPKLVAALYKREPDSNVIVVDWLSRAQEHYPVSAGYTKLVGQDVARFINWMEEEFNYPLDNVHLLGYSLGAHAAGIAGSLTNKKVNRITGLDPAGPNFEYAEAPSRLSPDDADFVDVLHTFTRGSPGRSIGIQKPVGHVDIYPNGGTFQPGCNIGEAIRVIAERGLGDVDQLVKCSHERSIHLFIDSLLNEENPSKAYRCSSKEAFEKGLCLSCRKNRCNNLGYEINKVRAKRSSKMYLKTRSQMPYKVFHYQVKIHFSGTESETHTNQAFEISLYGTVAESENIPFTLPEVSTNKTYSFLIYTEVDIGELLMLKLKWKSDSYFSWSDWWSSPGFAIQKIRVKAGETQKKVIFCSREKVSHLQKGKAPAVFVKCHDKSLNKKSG
# Description: FIG. 3 is a graph showing measurement of LPL activity in milk spiked with 6 pmol LPL in the absence or presence of LPL inhibitor, Orlistat.
# (§1) LPL activity in milk spiked with 6 pmol LPL and increasing levels of Orlistat (an LPL inhibitor) was monitored over the course of 20 min (FIG. 3). […] Raw milk samples were also treated with this level of Orlistat (10 μM) (FIG. 4).
# LPL [2] = experiment: Lipase activity inhibition in raw milk samples after incubation with Orlistat; assay type: biochemical; conditions: raw milk samples (n=2); 10 μM Orlistat; incubated 1 h (FIG. 4)
# Description: as §1, with “FIG. 4 is a graph sowing lipase activity inhibition after incubation with Orlistat. […] LPL activity” for “LPL activity”
compound,measurement,setting,value
CCCCCCCCCCC[C@@H](C[C@@H]1OC(=O)[C@H]1CCCCCC)OC(=O)[C@H](CC(C)C)NC=O [Orlistat],reduction in LPL activity,LPL [1],most significant reduction in LPL
same,decrease in lipase activity (LPL),LPL [2],22%
